Experimental data as given in patent US20240407991A1, “LOW PENETRATION SUNSCREEN COMPOSITIONS” (Johnson & Johnson Consumer Inc., priority 2023, published 2024).

System: skin
Assay: Skin permeation of UV filters and active agents after topical application
Settings: from Compositions 27 to 31, topically applied

With `NC(=O)c1cccnc1` [niacinamide] the “skin permeation of cosmetically acceptable active agents” value was “permeated the skin”.
